US12096773B2, “Herbicidal composition” (ISHIHARA SANGYO KAISHA, LTD., priority 2019, dated 2024)

Tests used:
Type in all cases: in vivo
[1] = system: horseweed (Conyza canadensis(L.) Cron.); assay: Example 1 pot test, foliar treatment of horseweed, visual growth inhibition; conditions: 21st day after foliar treatment
Excerpt: (§1) Upland field soil was put into a 1/1,000,000 hectare pot, and seeds of horseweed (Conyza canadensis(L.) Cron.) were sown.

[2] = system: horseweed (Conyza canadensis(L.) Cron.); assay: Example 2 pot test, foliar treatment of horseweed, visual growth inhibition; conditions: 19th day after foliar treatment
Excerpt: as §1

[3] = system: horseweed (Conyza canadensis(L.) Cron.); assay: Example 3 pot test, foliar treatment of horseweed, growth inhibition over time; conditions: for growth inhibition effect (in words): used alone, 19th day after the foliar treatment
Excerpt: as §1

[4] = system: black nightshade (Solanum nigrum L.); assay: Example 4 pot test, foliar treatment, black nightshade
Excerpt: (§2) Upland field soil was put into a 1/1,000,000 hectare pot, and seeds of black nightshade (Solanum nigrum L.), wild oat (Avena fatua L.) and dandelion (Taraxacum officinale) were sown.

[5] = system: dandelion (Taraxacum officinale); assay: Example 4 pot test, foliar treatment, dandelion
Excerpt: as §2

[6] = system: yellow nutsedge (Cyperus esculentus L.); assay: Example 5 pot test, foliar treatment, yellow nutsedge; conditions: 22nd day after foliar treatment
Excerpt: Upland field soil was put into a 1/1,000,000 hectare pot, and tubers of yellow nutsedge (Cyperus esculentus L.) were embedded.

[7] = system: common ragweed (Ambrosia elatior L.); assay: Example 6 pot test, foliar treatment, common ragweed
Excerpt: (§3) Upland field soil was put into a 1/1,000,000 hectare pot, and seeds of common ragweed (Ambrosia elatior L.) and Kochia (Kochia scoparia L.) were sown.

[8] = system: Kochia (Kochia scoparia L.); assay: Example 6 pot test, foliar treatment, Kochia
Excerpt: as §3

[9] = system: barnyardgrass (Echinochloa crus-galli L.); assay: Example 8 pot test, foliar treatment, barnyardgrass
Excerpt: (§4) Upland field soil was put into a 1/1,000,000 hectare pot, and seeds of goosegrass (Eleusine indica L.), barnyardgrass (Echinochloa crus-galli L.), giant foxtail (Setaria faberi Herrm.) and crabgrass (Digitaria sanguinalis L.) were sown.

[10] = system: giant foxtail (Setaria faberi Herrm.); assay: Example 8 pot test, foliar treatment, giant foxtail
Excerpt: as §4

[11] = system: crabgrass (Digitaria sanguinalis L.); assay: Example 8 pot test, foliar treatment, crabgrass
Excerpt: as §4

[12] = system: redroot pigweed (Amaranthus retroflexus L.); assay: Example 9 pot test, foliar treatment, redroot pigweed
Excerpt: (§5) Upland field soil was put into a 1/1,000,000 hectare pot, and seeds of redroot pigweed (Amaranthus retroflexus L.), Kochia (Kochia scoparia L.) and Chenopodium album L. var. centrorubrum Makino were sown.

[13] = system: Kochia (Kochia scoparia L.); assay: Example 9 pot test, foliar treatment, Kochia
Excerpt: as §5

[14] = system: Chenopodium album L. var. centrorubrum Makino; assay: Example 9 pot test, foliar treatment, Chenopodium album var. centrorubrum
Excerpt: as §5

[15] = system: wild oat (Avena fatua L.); assay: Example 4 pot test, foliar treatment, wild oat
Excerpt: as §2

[16] = system: goosegrass (Eleusine indica L.); assay: Example 8 pot test, foliar treatment, goosegrass
Excerpt: as §4

COC(=O)CCNC(=O)C(C)Sc1cc(-n2c(=O)cc(C(F)(F)F)n(C)c2=O)c(F)cc1Cl (stereo not drawn) [Tiafenacil, tiafenacil]
Growth inhibition rate (%) ([1]; dose 25 g/ha): 33% | Growth inhibition rate (%) ([1]; dose 50 g/ha): 40% | Growth inhibition rate (%) ([2]; dose 25 g/ha): 23% | Growth inhibition rate (%) 19th day ([3]; dose 50 g/ha): 23% | Growth inhibition rate (%) 27th day ([3]; dose 50 g/ha): 20% | Growth inhibition rate (%) 42nd day ([3]; dose 50 g/ha): 20% | Growth inhibition rate (%) 19th day ([3]; dose 100 g/ha): 50% | Growth inhibition rate (%) 27th day ([3]; dose 100 g/ha): 43% | Growth inhibition rate (%) 42nd day ([3]; dose 100 g/ha): 30% | growth inhibition effect (in words) [3]: no sufficient growth inhibition effect | Growth inhibition rate (%) Black nightshade (27th day) ([4]; dose 25 g/ha): 58% | Growth inhibition rate (%) Dandelion (10th day) ([5]; dose 25 g/ha): 30% | Growth inhibition rate (%) Yellow nutsedge ([6]; dose 50 g/ha): 35% | Growth inhibition rate (%) Common Ragweed (6th day) ([7]; dose 25 g/ha): 50% | Growth inhibition rate (%) Common Ragweed (6th day) ([7]; dose 50 g/ha): 50% | Growth inhibition rate (%) Kochia (10th day) ([8]; dose 25 g/ha): 30% | Growth inhibition rate (%) Kochia (10th day) ([8]; dose 50 g/ha): 30% | Growth inhibition rate (%) Barnyardgrass (11th day) ([9]; dose 2.5 g/ha): 30% | Growth inhibition rate (%) Giant foxtail (7th day) ([10]; dose 2.5 g/ha): 80% | Growth inhibition rate (%) Crabgrass (18th day) ([11]; dose 2.5 g/ha): 30% | Growth inhibition rate (%) Red root pigweed (8th day) ([12]; dose 1 g/ha): 50% | Growth inhibition rate (%) Kochia (14th day) ([13]; dose 1 g/ha): 13% | Growth inhibition rate (%) Kochia (14th day) ([13]; dose 2 g/ha): 23% | Growth inhibition rate (%) Chenopodium album L. var. centrorubrum Makino (14th day) ([14]; dose 1 g/ha): 3% | Growth inhibition rate (%) Chenopodium album L. var. centrorubrum Makino (14th day) ([14]; dose 2 g/ha): 30%

CCn1ncc(C(=O)c2ccc(S(C)(=O)=O)c(OCCOC)c2C)c1OC(C)OC(=O)OC (stereo not drawn) [Tolpyralate, tolpyralate]
Growth inhibition rate (%) ([1]; dose 15 g/ha): 33% | Growth inhibition rate (%) ([1]; dose 30 g/ha): 30% | Growth inhibition rate (%) ([1]; dose 50 g/ha): 30% | Growth inhibition rate (%) ([2]; dose 125 g/ha): 33% | Growth inhibition rate (%) ([2]; dose 250 g/ha): 37% | Growth inhibition rate (%) 19th day ([3]; dose 5 g/ha): 20% | Growth inhibition rate (%) 27th day ([3]; dose 5 g/ha): 47% | Growth inhibition rate (%) 42nd day ([3]; dose 5 g/ha): 23% | Growth inhibition rate (%) 19th day ([3]; dose 10 g/ha): 17% | Growth inhibition rate (%) 27th day ([3]; dose 10 g/ha): 37% | Growth inhibition rate (%) 42nd day ([3]; dose 10 g/ha): 47% | growth inhibition effect (in words) [3]: no sufficient growth inhibition effect | Growth inhibition rate (%) Black nightshade (27th day) ([4]; dose 15 g/ha): 72% | Growth inhibition rate (%) Black nightshade (27th day) ([4]; dose 30 g/ha): 79% | Growth inhibition rate (%) Black nightshade (27th day) ([4]; dose 50 g/ha): 78% | Growth inhibition rate (%) Wild oat (21st day) ([15]; dose 15 g/ha): 10% | Growth inhibition rate (%) Wild oat (21st day) ([15]; dose 30 g/ha): 28% | Growth inhibition rate (%) Wild oat (21st day) ([15]; dose 50 g/ha): 30% | Growth inhibition rate (%) Dandelion (10th day) ([5]; dose 15 g/ha): 30% | Growth inhibition rate (%) Dandelion (10th day) ([5]; dose 30 g/ha): 30% | Growth inhibition rate (%) Dandelion (10th day) ([5]; dose 50 g/ha): 30% | Growth inhibition rate (%) Yellow nutsedge ([6]; dose 15 g/ha): 40% | Growth inhibition rate (%) Yellow nutsedge ([6]; dose 30 g/ha): 50% | Growth inhibition rate (%) Common Ragweed (6th day) ([7]; dose 15 g/ha): 15% | Growth inhibition rate (%) Common Ragweed (6th day) ([7]; dose 30 g/ha): 15% | Growth inhibition rate (%) Common Ragweed (6th day) ([7]; dose 50 g/ha): 10% | Growth inhibition rate (%) Kochia (10th day) ([8]; dose 15 g/ha): 15% | Growth inhibition rate (%) Kochia (10th day) ([8]; dose 30 g/ha): 20% | Growth inhibition rate (%) Kochia (10th day) ([8]; dose 50 g/ha): 15% | Growth inhibition rate (%) Goosegrass (5th day) ([16]; dose 1.5 g/ha): 15% | Growth inhibition rate (%) Goosegrass (5th day) ([16]; dose 3 g/ha): 15% | Growth inhibition rate (%) Goosegrass (5th day) ([16]; dose 5 g/ha): 23% | Growth inhibition rate (%) Barnyardgrass (11th day) ([9]; dose 1.5 g/ha): 45% | Growth inhibition rate (%) Barnyardgrass (11th day) ([9]; dose 3 g/ha): 45% | Growth inhibition rate (%) Barnyardgrass (11th day) ([9]; dose 5 g/ha): 40% | Growth inhibition rate (%) Giant foxtail (7th day) ([10]; dose 1.5 g/ha): 10% | Growth inhibition rate (%) Giant foxtail (7th day) ([10]; dose 3 g/ha): 30% | Growth inhibition rate (%) Giant foxtail (7th day) ([10]; dose 5 g/ha): 40% | Growth inhibition rate (%) Crabgrass (18th day) ([11]; dose 1.5 g/ha): 30% | Growth inhibition rate (%) Crabgrass (18th day) ([11]; dose 3 g/ha): 40% | Growth inhibition rate (%) Crabgrass (18th day) ([11]; dose 5 g/ha): 50% | Growth inhibition rate (%) Red root pigweed (8th day) ([12]; dose 1.5 g/ha): 23% | Growth inhibition rate (%) Red root pigweed (8th day) ([12]; dose 3 g/ha): 25% | Growth inhibition rate (%) Red root pigweed (8th day) ([12]; dose 5 g/ha): 30% | Growth inhibition rate (%) Kochia (14th day) ([13]; dose 1.5 g/ha): 10% | Growth inhibition rate (%) Kochia (14th day) ([13]; dose 3 g/ha): 23% | Growth inhibition rate (%) Kochia (14th day) ([13]; dose 5 g/ha): 25% | Growth inhibition rate (%) Chenopodium album L. var. centrorubrum Makino (14th day) ([14]; dose 1.5 g/ha): 10% | Growth inhibition rate (%) Chenopodium album L. var. centrorubrum Makino (14th day) ([14]; dose 3 g/ha): 10% | Growth inhibition rate (%) Chenopodium album L. var. centrorubrum Makino (14th day) ([14]; dose 5 g/ha): 15%
